How the values were obtained:
Assay in all cases: Kinase selectivity, scanMAX Kinase assay panel (DiscoverX), % control at 1 uM
Format in all cases: binding
[1] = biological target: T1, scanMAX Kinase assay panel (Homo sapiens, UniProt O15197); conditions: EPHB6; 1 uM; read-out: Percent Control (%)
T1 construct: purchased DiscoverX
T1 sequence (O15197 32-1021): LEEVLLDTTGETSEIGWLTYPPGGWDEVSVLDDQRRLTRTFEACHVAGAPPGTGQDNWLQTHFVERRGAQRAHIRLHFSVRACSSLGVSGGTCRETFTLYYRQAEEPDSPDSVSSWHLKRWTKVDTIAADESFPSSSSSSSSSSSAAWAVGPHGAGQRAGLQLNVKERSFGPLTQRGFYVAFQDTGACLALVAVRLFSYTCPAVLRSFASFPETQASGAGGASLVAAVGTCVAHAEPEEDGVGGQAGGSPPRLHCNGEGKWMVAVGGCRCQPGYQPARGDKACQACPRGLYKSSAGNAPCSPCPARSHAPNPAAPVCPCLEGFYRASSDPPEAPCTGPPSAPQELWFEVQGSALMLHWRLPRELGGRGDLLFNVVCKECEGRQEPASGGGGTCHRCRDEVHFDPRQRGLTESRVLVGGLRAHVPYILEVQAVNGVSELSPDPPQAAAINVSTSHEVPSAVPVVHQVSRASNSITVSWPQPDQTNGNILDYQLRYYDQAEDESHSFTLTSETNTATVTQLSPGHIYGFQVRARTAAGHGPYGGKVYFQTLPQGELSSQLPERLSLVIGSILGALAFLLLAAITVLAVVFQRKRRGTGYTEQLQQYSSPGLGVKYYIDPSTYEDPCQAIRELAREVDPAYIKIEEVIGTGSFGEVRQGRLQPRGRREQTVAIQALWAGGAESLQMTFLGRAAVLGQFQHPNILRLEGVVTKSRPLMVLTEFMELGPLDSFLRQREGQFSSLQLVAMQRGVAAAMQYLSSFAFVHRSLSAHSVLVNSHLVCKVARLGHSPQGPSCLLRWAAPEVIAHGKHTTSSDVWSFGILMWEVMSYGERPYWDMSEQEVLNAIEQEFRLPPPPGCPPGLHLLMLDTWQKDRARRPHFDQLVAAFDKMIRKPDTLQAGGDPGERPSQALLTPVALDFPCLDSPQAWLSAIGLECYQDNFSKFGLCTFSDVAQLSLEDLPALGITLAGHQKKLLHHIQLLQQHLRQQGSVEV
Summary of the method: (§1)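 Compounds were tested at 1 uM in DMSO against each enzyme in the panel. Percent control was calculated as (compound − positive control)/(negative control − positive control) × 100, and a compound was scored active on a kinase when this value fell below 35.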

[2] = biological target: T2, scanMAX Kinase assay panel (Homo sapiens, UniProt Q9NQU5); conditions: PAK6; 1 uM; read-out: Percent Control (%)
T2 construct: purchased DiscoverX
Summary of the method: as §1

[3] = biological target: T3, scanMAX Kinase assay panel (Homo sapiens, UniProt O95747); conditions: OSR1; 1 uM; read-out: Percent Control (%)
T3 construct: purchased DiscoverX
Summary of the method: as §1

[4] = biological target: T4, scanMAX Kinase assay panel (Homo sapiens, UniProt O00444); conditions: PLK4; 1 uM; read-out: Percent Control (%)
T4 construct: purchased DiscoverX
T4 sequence (O00444 1-970): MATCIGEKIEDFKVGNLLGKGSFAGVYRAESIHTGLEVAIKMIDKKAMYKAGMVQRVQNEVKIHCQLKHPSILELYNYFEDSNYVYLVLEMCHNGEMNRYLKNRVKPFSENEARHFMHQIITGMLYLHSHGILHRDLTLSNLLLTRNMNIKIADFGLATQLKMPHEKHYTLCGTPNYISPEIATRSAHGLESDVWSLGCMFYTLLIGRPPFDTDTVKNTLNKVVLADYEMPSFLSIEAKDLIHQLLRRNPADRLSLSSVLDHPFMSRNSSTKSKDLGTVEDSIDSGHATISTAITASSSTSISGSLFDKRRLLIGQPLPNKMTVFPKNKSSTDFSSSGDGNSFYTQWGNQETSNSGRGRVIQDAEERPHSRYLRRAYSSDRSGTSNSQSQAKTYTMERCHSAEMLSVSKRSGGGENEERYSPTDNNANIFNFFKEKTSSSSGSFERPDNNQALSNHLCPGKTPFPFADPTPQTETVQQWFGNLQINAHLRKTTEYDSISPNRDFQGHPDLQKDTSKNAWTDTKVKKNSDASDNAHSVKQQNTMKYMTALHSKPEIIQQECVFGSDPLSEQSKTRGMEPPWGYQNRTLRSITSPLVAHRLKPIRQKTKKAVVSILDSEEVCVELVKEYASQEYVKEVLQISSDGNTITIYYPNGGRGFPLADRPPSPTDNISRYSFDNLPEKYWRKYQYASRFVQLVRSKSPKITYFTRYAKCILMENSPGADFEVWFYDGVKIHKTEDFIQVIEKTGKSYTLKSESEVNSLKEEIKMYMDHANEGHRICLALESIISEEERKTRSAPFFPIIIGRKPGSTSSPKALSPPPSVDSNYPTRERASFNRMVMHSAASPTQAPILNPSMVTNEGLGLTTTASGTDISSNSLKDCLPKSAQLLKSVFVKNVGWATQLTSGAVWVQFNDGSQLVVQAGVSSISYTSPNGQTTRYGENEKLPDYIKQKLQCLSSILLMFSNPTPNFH
Summary of the method: as §1

[5] = biological target: T5, scanMAX Kinase assay panel (Homo sapiens, UniProt P00533, L858R); conditions: EGFR (L858R); 1 uM; read-out: Percent Control (%)
T5 construct: purchased DiscoverX
Summary of the method: as §1

T3 sequence (O95747 whole entry): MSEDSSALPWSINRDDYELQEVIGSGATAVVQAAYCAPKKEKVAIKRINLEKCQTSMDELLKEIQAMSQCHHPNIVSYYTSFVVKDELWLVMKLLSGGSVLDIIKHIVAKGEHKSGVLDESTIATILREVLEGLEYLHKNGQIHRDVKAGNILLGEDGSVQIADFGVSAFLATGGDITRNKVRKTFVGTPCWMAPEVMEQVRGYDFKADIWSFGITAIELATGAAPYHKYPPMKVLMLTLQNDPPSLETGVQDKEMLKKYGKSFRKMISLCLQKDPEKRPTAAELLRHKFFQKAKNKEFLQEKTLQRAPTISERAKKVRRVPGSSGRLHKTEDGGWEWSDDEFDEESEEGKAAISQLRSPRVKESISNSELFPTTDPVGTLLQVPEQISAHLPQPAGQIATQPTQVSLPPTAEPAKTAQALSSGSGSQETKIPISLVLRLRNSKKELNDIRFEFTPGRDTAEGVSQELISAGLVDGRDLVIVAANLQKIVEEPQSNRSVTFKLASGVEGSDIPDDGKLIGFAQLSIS
T2 sequence (Q9NQU5 whole entry): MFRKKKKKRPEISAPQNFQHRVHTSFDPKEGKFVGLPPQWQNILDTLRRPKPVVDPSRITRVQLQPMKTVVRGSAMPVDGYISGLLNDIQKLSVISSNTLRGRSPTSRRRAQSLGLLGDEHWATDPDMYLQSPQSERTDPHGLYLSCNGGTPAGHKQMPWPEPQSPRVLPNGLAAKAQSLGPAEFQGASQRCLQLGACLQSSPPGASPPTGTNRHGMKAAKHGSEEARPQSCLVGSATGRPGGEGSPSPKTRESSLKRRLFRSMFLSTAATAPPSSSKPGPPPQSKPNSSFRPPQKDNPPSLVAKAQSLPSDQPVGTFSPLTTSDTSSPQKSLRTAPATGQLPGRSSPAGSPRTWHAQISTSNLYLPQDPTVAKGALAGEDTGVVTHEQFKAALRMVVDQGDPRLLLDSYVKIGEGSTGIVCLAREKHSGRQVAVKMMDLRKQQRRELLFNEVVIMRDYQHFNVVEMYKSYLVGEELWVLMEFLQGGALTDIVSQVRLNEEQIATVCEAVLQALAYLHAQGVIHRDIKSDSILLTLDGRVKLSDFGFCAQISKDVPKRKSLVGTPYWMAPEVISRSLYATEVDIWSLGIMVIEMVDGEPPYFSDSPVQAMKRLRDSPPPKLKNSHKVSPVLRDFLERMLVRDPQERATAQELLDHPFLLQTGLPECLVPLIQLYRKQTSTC
T5 sequence (P00533 25-1210 L858R): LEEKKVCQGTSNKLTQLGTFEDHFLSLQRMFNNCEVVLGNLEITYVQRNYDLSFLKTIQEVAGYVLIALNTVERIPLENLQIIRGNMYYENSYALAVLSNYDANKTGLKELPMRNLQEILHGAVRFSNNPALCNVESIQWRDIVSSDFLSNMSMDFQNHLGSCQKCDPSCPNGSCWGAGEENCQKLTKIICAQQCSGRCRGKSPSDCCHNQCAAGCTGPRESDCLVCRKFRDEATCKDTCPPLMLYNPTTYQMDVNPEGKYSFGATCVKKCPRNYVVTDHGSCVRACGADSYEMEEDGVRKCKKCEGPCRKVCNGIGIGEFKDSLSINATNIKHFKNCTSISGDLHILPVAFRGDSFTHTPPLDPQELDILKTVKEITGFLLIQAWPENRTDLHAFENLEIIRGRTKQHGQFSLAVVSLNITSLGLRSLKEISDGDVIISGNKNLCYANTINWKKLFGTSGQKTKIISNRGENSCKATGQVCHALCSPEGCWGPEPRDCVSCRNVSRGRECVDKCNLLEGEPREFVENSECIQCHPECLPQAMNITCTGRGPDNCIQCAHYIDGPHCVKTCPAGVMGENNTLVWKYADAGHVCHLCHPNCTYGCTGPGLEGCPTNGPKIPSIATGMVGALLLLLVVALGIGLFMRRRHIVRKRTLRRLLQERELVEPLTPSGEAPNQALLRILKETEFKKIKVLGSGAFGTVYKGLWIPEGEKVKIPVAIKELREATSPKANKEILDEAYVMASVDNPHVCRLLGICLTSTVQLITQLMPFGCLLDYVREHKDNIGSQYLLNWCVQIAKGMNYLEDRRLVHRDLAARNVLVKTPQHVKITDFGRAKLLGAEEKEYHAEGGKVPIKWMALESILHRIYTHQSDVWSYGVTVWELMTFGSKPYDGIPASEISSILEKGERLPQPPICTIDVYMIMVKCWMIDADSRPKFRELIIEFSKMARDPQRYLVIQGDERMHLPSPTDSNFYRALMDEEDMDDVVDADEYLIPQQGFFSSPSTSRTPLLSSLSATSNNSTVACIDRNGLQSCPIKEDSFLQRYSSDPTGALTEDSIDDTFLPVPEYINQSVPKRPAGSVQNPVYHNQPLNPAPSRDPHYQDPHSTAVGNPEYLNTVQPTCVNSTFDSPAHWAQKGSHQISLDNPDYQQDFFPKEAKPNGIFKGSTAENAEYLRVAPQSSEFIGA

SMILES | remaining binding at 1 µM [1] [%] | remaining binding at 1 µM [2] [%] | remaining binding at 1 µM [3] [%] | remaining binding at 1 µM [4] [%] | remaining binding at 1 µM [5] [%]
Cc1ccc(C(=O)Nc2ccc(CN3CCN(C)CC3)c(C(F)(F)F)c2)cc1C#Cc1cnc2c(Nc3cnn(C)c3)cccn12 [Example 1, 4-methyl-3-((8-((1-methyl-1H-pyrazol-4-yl)amino)imidazo[1,2-a]pyridin-3-yl)ethynyl)-N-(4-((4-methylpiperazin-1-yl)methyl)-3-(trifluoromethyl)phenyl)benzamide] | 1 | 66 | 88 | 79 | 0
Cc1cn(-c2cc(NC(=O)c3ccc(C)c(C#Cc4cnc5c(Nc6cnn(C)c6)cccn45)c3)cc(C(F)(F)F)c2)cn1 [Example 12, 4-methyl-N-(3-(4-methyl-1H-imidazol-1-yl)-5-(trifluoromethyl)phenyl)-3-((8-((1-methyl-1H-pyrazol-4-yl)amino)imidazo[1,2-a]pyridin-3-yl)ethynyl)benzamide] | 0 | 84 | 100 | 85 | 47
Cc1ccc(NC(=O)C2(C(=O)Nc3ccc(F)cc3)CC2)cc1C#Cc1cnc2c(Nc3cnn(C(C)C)c3)cccn12 [Example 78] | 0 | 97 | 100 | 100 | 84

Source: US10870647B2, “Imidazopyridine derivative, method for preparing same, and pharmaceutical composition containing same as active ingredient for preventing or treating cancer” (DAEGU-GYEONGBUK MEDICAL INNOVATION FOUNDATION, priority 2016, dated 2020)
